Patent USRE47689E1, “Compounds for treating spinal muscular atrophy” (PTC Therapeutics, Inc., priority 2011, dated 2019)
Where two headings read alike, the source gives them in different places.

Tests used:
[1] = test system: SMN2 minigene (full length SMN2 minigene mRNA containing SMN2 exon 7); assay: SMN2 minigene mRNA splicing RT-qPCR assay in cultured cells; assay type: cell-based, human; conditions: Homo sapiens, HEK293-H, read-out: EC1.5x for production of full length SMN2 mRNA
Summary of the method: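 Full-length SMN2 minigene mRNA (exon 7 included), minigene-specific and not endogenous SMN, quantified by RT-qPCR multiplexed with GAPDH in stably transfected HEK293H cells after 24 h compound exposure at 37° C. Abundance from efficiency-corrected Ct, normalized to GAPDH and vehicle; EC1.5x reported as star bins.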

Smn protein = Smn protein assay in cultured cells (SMN HTRF); assay type: cell-based, human; conditions: for EC1.5x (concentration giving 1.5-fold Smn protein increase): read-out: EC1.5x for Smn protein expression
Summary of the method: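 Smn in SMA fibroblast lysates, measured by anti-SMN HTRF after 48 h compound exposure; EC1.5x from fold change over vehicle.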

[2] = HEK293H cells stably transfected with SMN2-A minigene, 24 hours, 7-point concentration curve, 1.5-fold relative to vehicle-treated cells
[3] = SMA patient fibroblast cells, 48 hours, 7-point concentration data, fold increase relative to vehicle control (SMN HTRF)
[4] = SMA Type 1 patient fibroblast cells (GM03813), 48 hours, 7-point concentration curve, SMN HTRF, concentration producing 1.5 times Smn protein vs DMSO vehicle control

melting point	SMILES	EC (1.5-fold) [1, 2]	maximum fold (Fold) increase of Smn protein (Smn protein; [3])	EC1.5x (concentration giving 1.5-fold Smn protein increase) (Smn protein; [4])	EC (1.5-fold) ([1]; 24 h)	maximum fold (Fold) increase of Smn protein (Smn protein)	EC1.5x (concentration giving 1.5-fold Smn protein increase) (Smn protein)
143 to 145 °C	C[C@H]1CN(c2ccc3cc(-c4ccc(F)c(Cl)c4)c(=O)oc3c2)CCN1 [Compound 485, 3-(3-chloro-4-fluorophenyl)-7-[(3S)-3-methylpiperazin-1-yl]-2H-chromen-2-one]	1 to 3 µM	* (maximum fold increase of ≤1.2)				
175 to 177 °C	Cc1ccn2nc(-c3cc4ccc(N5CCCN(C)CC5)cc4oc3=O)cc2c1 [Compound 310, 7-(4-methyl-1,4-diazepan-1-yl)-3-(5-methylpyrazolo[1,5-a]pyridin-2-yl)-2H-chromen-2-one]	0.3 to 1 µM	** (fold increase between >1.2 and ≤1.35)				
248 to 250 °C	C[C@@H]1CN(c2ccc3cc(-c4cn5ccncc5n4)c(=O)oc3c2)C[C@H](C)N1 [Compound 417, 7-[(3R,5S)-3,5-dimethylpiperazin-1-yl]-3-(imidazo[1,2-a]pyrazin-2-yl)-2H-chromen-2-one]	0.1 to 0.3 µM	*** (fold increase between >1.35 and ≤1.5)	< 300 nM			
288 to 290 °C	Cc1cn2cc(-c3cc4ccc(N5CCNCC5)cc4oc3=O)nc2cn1 [Compound 567, 3-(6-methylimidazo[1,2-a]pyrazin-2-yl)-7-(piperazin-1-yl)-2H-chromen-2-one]	< 0.1 µM	***** (fold increase >1.65)	< 300 nM			
175 to 177 °C	CCN(CC)CCOc1ccc2cc(-c3cn4cc(C)nc(C)c4n3)c(=O)oc2c1 [Compound 895, 7-[2-(diethylamino)ethoxy]-3-(6,8-dimethylimidazo[1,2-a]pyrazin-2-yl)-2H-chromen-2-one]	< 0.1 µM	***** (fold increase >1.65)	< 300 nM			
197 to 201 °C	CNCCCc1ccc2cc(-c3cn4cc(C)nc(C)c4n3)c(=O)oc2c1 [Compound 912, 3-(6,8-dimethylimidazo[1,2-a]pyrazin-2-yl)-7-[3-(methylamino)propyl]-2H-chromen-2-one]	< 0.1 µM	**** (fold increase between >1.5 and ≤1.65)	< 300 nM			
170 to 173 °C	Cc1cn2cc(-c3cc4ccc(N5C[C@@H](C)N[C@@H](C)C5)cc4oc3=O)cc2c(C)n1 [Compound 645, 7-[(3R,5S)-3,5-dimethylpiperazin-1-yl]-3-(1,3-dimethylpyrrolo[1,2-a]pyrazin-7-yl)-2H-chromen-2-one]	< 0.1 µM	***** (fold increase >1.65)	< 300 nM			
249 to 259 °C	CCN1CCC(c2ccc3cc(-c4cn5cc(C)ncc5n4)c(=O)oc3c2)CC1 [Compound 844, 7-(1-ethylpiperidin-4-yl)-3-(6-methylimidazo[1,2-a]pyrazin-2-yl)-2H-chromen-2-one]	< 0.1 µM	**** (fold increase between >1.5 and ≤1.65)	300 to 1000 nM			
225 to 227 °C	Cc1ccc2nc(-c3cc4ccc(N5C[C@@H](C)N[C@@H](C)C5)cc4oc3=O)cn2n1 [Cpd 617, 7-[(3R,5S)-3,5-dimethylpiperazin-1-yl]-3-(6-methylimidazo[1,2-b]pyridazin-2-yl)-2H-chromen-2-one]	< 0.1 µM	*** (fold increase between >1.35 and ≤1.5)				
268 to 278 °C	C[C@H]1CN(c2cc(F)c3cc(-c4cn5cccc(Cl)c5n4)c(=O)oc3c2)CCN1 [Compound 393, 3-(8-chloroimidazo[1,2-a]pyridin-2-yl)-5-fluoro-7-[(3S)-3-methylpiperazin-1-yl]-2H-chromen-2-one]	0.3 to 1 µM	*** (fold increase between >1.35 and ≤1.5)				
217 to 223 °C	Cc1ccn2cc(-c3cc4ccc(N5CCNC(C)(C)C5)cc4oc3=O)nc2c1 [Compound 215, 7-(3,3-dimethylpiperazin-1-yl)-3-(7-methylimidazo[1,2-a]pyridin-2-yl)-2H-chromen-2-one]	1 to 3 µM	* (maximum fold increase of ≤1.2)				
253 to 262 °C	O=c1oc2cc(N3CCCNCC3)ccc2cc1-c1cn2ccc(C(F)(F)F)cc2n1 [Compound 275, 7-(1,4-diazepan-1-yl)-3-[7-(trifluoromethyl)imidazo[1,2-a]pyridin-2-yl]-2H-chromen-2-one]	0.3 to 1 µM	* (maximum fold increase of ≤1.2)				
238 to 241 °C	O=c1oc2cc(N3CCN4CCC[C@@H]4C3)ccc2cc1-c1cn2cccc(F)c2n1 [Compound 531, 3-(8-fluoroimidazo[1,2-a]pyridin-2-yl)-7-[(8aR)-hexahydropyrrolo[1,2-a]pyrazin-2(1H)-yl]-2H-chromen-2-one]	0.3 to 1 µM	** (fold increase between >1.2 and ≤1.35)				
232 to 236 °C	C[C@@H]1CN(c2ccc3cc(-c4cn5cc(F)cnc5n4)c(=O)oc3c2)CCN1 [Compound 481, 3-(6-fluoroimidazo[1,2-a]pyrimidin-2-yl)-7-[(3R)-3-methylpiperazin-1-yl]-2H-chromen-2-one]	1 to 3 µM	* (maximum fold increase of ≤1.2)				
193 to 196 °C	Cc1cn2cc(-c3cc4ccc(N5CC[C@H](NC(=O)OC(C)(C)C)C5)cc4oc3=O)cc2c(C)n1 [Compound 724, tert-butyl {(3S)-1-[3-(1,3-dimethylpyrrolo[1,2-a]pyrazin-7-yl)-2-oxo-2H-chromen-7-yl]pyrrolidin-3-yl}carbamate]	1 to 3 µM	* (maximum fold increase of ≤1.2)				
137 to 141 °C	CCc1cccn2cc(-c3cc4ccc(N5CCN(C)CC5)cc4oc3=O)nc12 [Compound 358, 3-(8-ethylimidazo[1,2-a]pyridin-2-yl)-7-(4-methylpiperazin-1-yl)-2H-chromen-2-one]	1 to 3 µM	*** (fold increase between >1.35 and ≤1.5)				
192 to 196 °C	Cc1nc(-c2cc3ccc(N4CCCN(C)CC4)cc3oc2=O)cn1-c1ccccn1 [Compound 453, 7-(4-methyl-1,4-diazepan-1-yl)-3-[2-methyl-1-(pyridin-2-yl)-1H-imidazol-4-yl]-2H-chromen-2-one]	3 to 30 µM	* (maximum fold increase of ≤1.2)				
268 to 270 °C	CCN1CCC(c2ccc3cc(-c4ccc5nc(C)cn5c4)c(=O)oc3c2)CC1 [Compound 827, 7-(1-ethylpiperidin-4-yl)-3-(2-methylimidazo[1,2-a]pyridin-6-yl)-2H-chromen-2-one]	< 0.1 µM	***** (fold increase >1.65)	< 300 nM			
268 to 272 °C	Cc1nc(Cl)cn2cc(-c3cc4ccc(N5CCN6CCC[C@@H]6C5)cc4oc3=O)nc12 [Compound 710, 3-(6-chloro-8-methylimidazo[1,2-a]pyrazin-2-yl)-7-[(8aR)-hexahydropyrrolo[1,2-a]pyrazin-2(1H)-yl]-2H-chromen-2-one]	< 0.1 µM	** (fold increase between >1.2 and ≤1.35)				
127 to 131 °C	COc1ccc(-c2cc3ccc(N4CCN[C@@H](C)C4)cc3oc2=O)cc1C [Compound 542, 3-(4-methoxy-3-methylphenyl)-7-[(3S)-3-methylpiperazin-1-yl]-2H-chromen-2-one]	1 to 3 µM	* (maximum fold increase of ≤1.2)				
191 to 198 °C	Cc1cn2cc(-c3cc4ccc(C5CCN(CC(C)C)CC5)cc4oc3=O)nc2c(C)n1 [Compound 914, 3-(6,8-dimethylimidazo[1,2-a]pyrazin-2-yl)-7-[1-(2-methylpropyl)piperidin-4-yl]-2H-chromen-2-one]	< 0.1 µM	**** (fold increase between >1.5 and ≤1.65)	< 300 nM			
243 to 253 °C	Cc1ccn2cc(-c3cc4ccc(N[C@H]5CCNC5)cc4oc3=O)nc2c1 [Compound 581, 3-(7-methylimidazo[1,2-a]pyridin-2-yl)-7-[(3S)-pyrrolidin-3-ylamino]-2H-chromen-2-one]	0.3 to 1 µM	* (maximum fold increase of ≤1.2)				

SMILES	melting point	EC (1.5-fold) [1, 2]	maximum fold (Fold) increase of Smn protein (Smn protein; [3])	EC1.5x (concentration giving 1.5-fold Smn protein increase) (Smn protein; [4])	EC (1.5-fold) ([1]; 24 h)	maximum fold (Fold) increase of Smn protein (Smn protein)	EC1.5x (concentration giving 1.5-fold Smn protein increase) (Smn protein)
Cc1cn2cc(-c3cc4ccc(C5=CCN(CCO)CC5)cc4oc3=O)nc2c(C)n1 [Compound 801, 3-(6,8-dimethylimidazo[1,2-a]pyrazin-2-yl)-7-[1-(2-hydroxyethyl)-1,2,3,6-tetrahydropyridin-4-yl]-2H-chromen-2-one]	172 to 214 °C				< 0.1 µM	**** (key: *: maximum fold increase of ≤1.2; **: fold increase between >1.2 and ≤1.35; ***: fold increase between >1.35 and ≤1.5; ****: fold increase between >1.5 and ≤1.65; *****: fold increase >1.65)	< 300 nM
